Results reported in article PMC6934184, “Selective DNA-PKcs inhibition extends the therapeutic index of localized radiotherapy and chemotherapy” (The Journal of Clinical Investigation, 2019).

Target: T1, HIPK4 (Homo sapiens, UniProt Q8NE63)
T1 construct: purchased Thermo Fisher Scientific (Life Technologies) SelectScreen
Test: SelectScreen Z'LYTE
Format: biochemical
How it was run: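 SelectScreen broad panel; activity (Z'LYTE, Adapta) plus binding formats. ATP: Km app for CSF1R Z'LYTE; 10 for CAMK1 Adapta. Readout = % per kinase.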

T1 sequence (Q8NE63 whole entry): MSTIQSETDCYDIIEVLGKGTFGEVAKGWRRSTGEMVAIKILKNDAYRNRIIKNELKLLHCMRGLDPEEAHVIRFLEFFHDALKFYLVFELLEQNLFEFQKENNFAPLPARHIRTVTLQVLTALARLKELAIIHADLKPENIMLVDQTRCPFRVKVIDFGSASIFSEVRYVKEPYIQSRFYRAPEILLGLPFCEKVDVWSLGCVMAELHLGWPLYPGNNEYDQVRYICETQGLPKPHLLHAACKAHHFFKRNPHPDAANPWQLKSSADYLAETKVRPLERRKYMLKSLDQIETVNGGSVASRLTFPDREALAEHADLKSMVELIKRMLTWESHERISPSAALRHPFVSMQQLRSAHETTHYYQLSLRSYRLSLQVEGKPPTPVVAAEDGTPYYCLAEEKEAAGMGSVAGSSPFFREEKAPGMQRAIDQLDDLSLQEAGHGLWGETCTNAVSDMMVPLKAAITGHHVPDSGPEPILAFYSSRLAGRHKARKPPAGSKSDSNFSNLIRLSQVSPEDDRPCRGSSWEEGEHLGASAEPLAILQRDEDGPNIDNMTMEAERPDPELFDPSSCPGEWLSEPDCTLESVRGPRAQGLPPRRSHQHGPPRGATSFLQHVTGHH

Structure (SMILES): CN(C(=O)CN1CCOCC1)c1ccc2sc3c(-c4cccc5c(=O)cc(N6CC7CCC(C6)O7)oc45)cccc3c2c1 [NU5455]
- inhibition at 1 µM: 0.9%
